Laboratory results as given in patent US20100280975A1, “SYSTEMS FOR CLINICAL TRIALS” (WisTa Laboratories Ltd., priority 2007, published 2010).

Tests used:
[1] = tested on: mild and moderate dementia of the Alzheimer type; assay: rember™ study: ADAS-cog change over 50 weeks, linear imputation for fit-survivor bias; assay type: in vivo, human; settings: for Estimated change from baseline, Least Exposed Dose comparator method / Estimated effect size, Least Exposed Dose comparator method: 50 weeks; for Estimated effect size, Least Exposed Dose comparator method: vs placebo-low arm; for Effect size inferred from least-squares analysis at 50 weeks / Effect size inferred from mixed effects analysis at 50 weeks: vs inferred placebo
Excerpt: A method has been developed by the inventors which has not been described previously which permits unbiased correction for the fit-survivor phenomenon. […] If a patient who was CDR-moderate at baseline discontinued medication at some time after 24 weeks, a straight line is fitted to the graph of available ADAS-cog change scores against visit-date for the available data for each subject. The line was not forced to pass through zero, to allow for placebo effect, and because the first visit is subject to random fluctuations. The use of a straight-line fit per-subject is supported by the large studies of Stern et al., (1994), Doraiswamy et al., (2001) and Winblad, B., Wimo, A., Engedal, K., Soininen, H., Verhey, F., Waldemar, G., Wetterholm, A. L., Haglund, A., Zhang, R., Schindler, R. (2006) 3-year study of donepezil therapy in Alzheimer's disease: effects of early and continuous therapy. […] The same approach can be applied to other outcome measures for which there were assessments scheduled after 24 weeks.
Subjects originally randomized to placebo were switched to the low (100 mg) dose bd after 24 weeks. This is referred to as the “placebo-low” treatment arm.
In this chart, the labelling conventions of “placlow” refers to subjects randomised to placebo and changed to low (100 mg) bd after 24 weeks, “low” refers to low (100 mg) dose tid, “30 mg” refers to 30 mg dose tid and “60 mg” refers to 60 mg dose tid.

[2] = tested on: mild and moderate dementia of the Alzheimer type; assay: Mild-brought-forward confirmatory analysis of ADAS-cog over 25 weeks; assay type: in vivo, human; settings: for Mild-brought-forward CDR-mild effect size over 25 weeks / Mild-brought-forward CDR-moderate effect size over 25 weeks / Mild-brought-forward confirmatory analysis, overall effect size over 25 weeks: vs placebo/placebo-low; for Mild-brought-forward confirmatory analysis, overall change from baseline over 25 weeks: whole population, mixed-effects model
[3] = tested on: mild and moderate dementia of the Alzheimer type; assay: rember™ study: MMSE over 50 weeks; assay type: in vivo, human
Excerpt: Another standardised test is the Mini-Mental State Examination [MMSE] which was proposed as a simple and quickly administered method for grading cognitive function (Folstein M F, Folstein S E & McHugh P R. ‘Mini-mental state’. A practical method for grading the cognitive state of patients for the clinician. Journal of Psychiatric Research 1975 12 189-198.). The MMSE is the most widely used cognitive screening instrument for the detection of cognitive dysfunction due to dementia in geriatric and psychiatric patients (Tombaugh T N & McIntyre N J. The mini-mental state examination: a comprehensive review. Journal of the American Geriatric Society 1992 40 922-935). The MMSE evaluates orientation, memory, attention and language functions.
The mean decline observed over the 50-week study in placebo-treated subjects was 7.8 ADAS-cog units (FIG. 19). […] On the ADAS-cog scale, about 60% of subjects improved or stayed the same at 50 weeks. On the MMSE scale, 62% improved or stayed the same at 50 weeks. The odds of a patient not declining on either scale were about 3.4 times better at the 60 mg dose than on placebo-low. The corresponding effect sizes were −6.8 ADAS-cog units and 3.2 MMSE units over the 50-week trial.

CDR-moderate subjects = assay: rember™ study: NPI (Neuropsychiatric Inventory) over 50 weeks; assay type: in vivo, human; settings: vs placebo-low arm
[4] = Adverse effects in the rember™ trial; assay type: in vivo, human
Method: Thus subjects in the Least Exposed Dose arm (ie subjects switched to the low (100 mg) dose after 6 months) who continued to decline withdrew from the study largely after 24 weeks. […] However, biased withdrawal was not a factor in CDR-mild subjects in the same low (100 mg) comparator treatment arm. Therefore the primary driver of non-random withdrawal in the rember™ trial was the experience of continuing rapid decline which was most apparent in the CDR-moderate group.

[5] = tested on: mild and moderate dementia of the Alzheimer type; assay: rember™ Phase 2 study: ADAS-cog change over 24 weeks; settings: for Estimate, ADAS-cog change vs placebo, LM (ANCOVA) analysis: 24-week time-point

CN(C)c1ccc2nc3ccc(=[N+](C)C)cc-3sc2c1 [rember™, methylthioninium chloride]
initial symptomatic improvement at 15 weeks, ADAS-cog ([1]; 60 mg dose): 1.6 ADAS-cog units
subjects improved or stayed the same on the ADAS-cog scale at 50 weeks ([1]; 60 mg tid): about 60%
Estimated change from baseline, Least Exposed Dose comparator method ([1]; 30 mg tid): 3.95 ADAS-cog units
Estimated change from baseline, Least Exposed Dose comparator method ([1]; low (100 mg) tid): 4.00 ADAS-cog units
Estimated effect size, Least Exposed Dose comparator method ([1]; 30 mg tid): −2.80 ADAS-cog units
Estimated effect size, Least Exposed Dose comparator method ([1]; 60 mg tid): −5.71 ADAS-cog units
Estimated effect size, Least Exposed Dose comparator method ([1]; low (100 mg) tid): −2.76 ADAS-cog units
Effect size inferred from least-squares analysis at 50 weeks ([1]; 30 mg tid): −4.37 ADAS-cog units
Effect size inferred from mixed effects analysis at 50 weeks ([1]; 30 mg tid): −3.87 ADAS-cog units
Effect size inferred from least-squares analysis at 50 weeks ([1]; 60 mg tid): −6.50 ADAS-cog units
Effect size inferred from least-squares analysis at 50 weeks ([1]; low (100 mg) tid): −3.59 ADAS-cog units
Effect size inferred from mixed effects analysis at 50 weeks ([1]; low (100 mg) tid): −4.04 ADAS-cog units
Mild-brought-forward CDR-mild change over 25 weeks ([2]; 30 mg): 3.07 ADAS-cog units
Mild-brought-forward CDR-mild change over 25 weeks ([2]; 60 mg): 1.07 ADAS-cog units
Mild-brought-forward CDR-mild change over 25 weeks ([2]; low (100 mg)): 3.60 ADAS-cog units
Mild-brought-forward CDR-mild effect size over 25 weeks ([2]; 30 mg): −1.19 ADAS-cog units
Mild-brought-forward CDR-mild effect size over 25 weeks ([2]; 60 mg): −3.19 ADAS-cog units
Mild-brought-forward CDR-mild effect size over 25 weeks ([2]; low (100 mg)): −0.66 ADAS-cog units
Mild-brought-forward CDR-moderate change over 25 weeks ([2]; 60 mg): 0.30 ADAS-cog units
Mild-brought-forward CDR-moderate change over 25 weeks ([2]; low (100 mg)): 4.82 ADAS-cog units
Mild-brought-forward CDR-moderate effect size over 25 weeks ([2]; 30 mg): 4.33 ADAS-cog units
Mild-brought-forward CDR-moderate effect size over 25 weeks ([2]; 60 mg): −5.67 ADAS-cog units
Mild-brought-forward CDR-moderate effect size over 25 weeks ([2]; low (100 mg)): −0.54 ADAS-cog units
Mild-brought-forward confirmatory analysis, overall effect size over 25 weeks ([2]; 30 mg): −2.39 ADAS-cog units
Mild-brought-forward confirmatory analysis, overall effect size over 25 weeks ([2]; 60 mg): −3.85 ADAS-cog units
Mild-brought-forward confirmatory analysis, overall effect size over 25 weeks ([2]; low (100 mg)): −0.84 ADAS-cog units
Mild-brought-forward confirmatory analysis, overall change from baseline over 25 weeks ([2]; 30 mg): 2.26 ADAS-cog units
Mild-brought-forward confirmatory analysis, overall change from baseline over 25 weeks ([2]; 60 mg): 0.78 ADAS-cog units
Mild-brought-forward confirmatory analysis, overall change from baseline over 25 weeks ([2]; low (100 mg)): 3.81 ADAS-cog units
initial symptomatic improvement at 15 weeks, MMSE ([3]; 60 mg dose): 0.8 MMSE units
effect size on MMSE over the 50-week trial ([3]; 60 mg tid): 3.2 MMSE units
subjects improved or stayed the same on the MMSE scale at 50 weeks ([3]; 60 mg tid): 62%
NPI carer-distress scale, best effect size over 50 weeks (CDR-moderate subjects): −4.6 units
NPI patient-disturbance scale, best effect size over 50 weeks (CDR-moderate subjects): −9.2 units
adverse effects ([4]; low (100 mg) bd, second 6-months of the study): adverse effects, most notably diarrhea
haematological side effects ([4]; tid vs. bd dosing regimes): showed a clear dose-response profile
effect size in the entire ITT population of mild and moderate AD ([5]; 60 mg tid, OC and LOCF analyses, 24 weeks, pooled CDR-mild and CDR-moderate): −1.0 to −1.2 ADAS-cog units
Estimate, ADAS-cog change vs placebo, LM (ANCOVA) analysis ([5]; ITT/LOCF, with interaction term, CDR-mild, 60 mg tid): −0.20 ADAS-cog units
Estimate, ADAS-cog change vs placebo, LM (ANCOVA) analysis ([5]; ITT/LOCF, with interaction term, CDR-mild, low (100 mg) tid): −0.79 ADAS-cog units
Estimate, ADAS-cog change vs placebo, LM (ANCOVA) analysis ([5]; ITT/LOCF, with interaction term, CDR-moderate, 30 mg tid): −3.00 ADAS-cog units
Estimate, ADAS-cog change vs placebo, LM (ANCOVA) analysis ([5]; ITT/LOCF, with interaction term, CDR-moderate, low (100 mg) tid): −0.40 ADAS-cog units
Estimate, change in ADAS-cog score vs intercept, least squares ([5]; ITT/LOCF, with interaction term, week 24, CDR-mild, 30 mg tid): 0.46 ADAS-cog units
